Species: Rattus norvegicus
Experiment: Open TG-GATES - Regimen: Daily Repeat
Format: toxicity, organism-based, Sprague-Dawley
Design: regimen Daily Repeat, gender Male, age 6 weeks
Details: in vivo, po, 300 mg/kg, route gavage, dose level Middle; for APTT / Bas / Eos / Fbg / Hb / Ht / Lym / MCH / MCHC / MCV / Mono / Neu / PT / Plat / RBC / Ret / WBC: tissue Blood; for KIDNEY_L / KIDNEY_R / KIDNEY_TOTAL: tissue Kidney; for LIVER: tissue Liver; for A/G / ALP / ALT / AST / BUN / CRE / Ca / Cl / DBIL / GLC / IP / K / LDH / Na / PL / RALB / TBIL / TC / TG / TP / gamma-GTP: tissue Plasma

## CCOC(=O)CCC(=O)O[C@H]1[C@H](O[C@@H]2[C@@H](C)[C@H](O[C@H]3C[C@@](C)(OC)[C@@H](O)[C@H](C)O3)[C@@H](C)C(=O)O[C@H](CC)[C@@](C)(O)[C@H](O)[C@@H](C)C(=O)[C@H](C)C[C@@]2(C)O)O[C@H](C)C[C@@H]1N(C)C [ERYTHROMYCIN ETHYLSUCCINATE]
72 h, time 3 day
  TERMINAL_BW: 237.7 g
  APTT: 21.3 s
  Bas: 0%
  Eos: 1%
  Fbg: 311.6 mg/dL
  Hb: 13.5 g/dL
  Ht: 39.3%
  Lym: 83.2%
  MCH: 21.5 pg
  MCHC: 34.4%
  MCV: 62.7 fL
  Mono: 3%
  Neu: 11.8%
  PT: 15.8 s
  Plat: 114.1 x10_4/uL
  RBC: 627.6 x10_4/ul
  Ret: 5.1%
  WBC: 94.1 x10_2/uL
  KIDNEY_L: 1 g
  KIDNEY_R: 1 g
  KIDNEY_TOTAL: 2 g
  LIVER: 10.9 g
  A/G: 1.2
  ALP: 1728.8 IU/L
  ALT: 44 IU/L
  AST: 76 IU/L
  BUN: 18.6 mg/dL
  CRE: 0.2 mg/dL
  Ca: 10.4 mg/dL
  Cl: 108 meq/L
  DBIL: 0 mg/dL
  GLC: 192.6 mg/dL
  IP: 7.3 mg/dL
  K: 4.2 meq/L
  LDH: 261 IU/L
  Na: 141.2 meq/L
  PL: 133.8 mg/dL
  RALB: 3 g/dL
  TBIL: 0.016 mg/dL
  TC: 72.2 mg/dL
  TG: 100.6 mg/dL
  TP: 5.5 g/dL
  gamma-GTP: 1.4 IU/L
[…], time 7 day
  TERMINAL_BW: 269.9 g
  APTT: 22.2 s
  Bas: 0%
  Eos: 1%
  Fbg: 331.6 mg/dL
  Hb: 13.7 g/dL
  Ht: 40.6%
  Lym: 84.8%
  MCH: 20.9 pg
  MCHC: 33.6%
  MCV: 62.3 fL
  Mono: 2.2%
  Neu: 11.2%
  PT: 16.3 s
  Plat: 120.3 x10_4/uL
  RBC: 653 x10_4/ul
  Ret: 6.3%
  WBC: 86.1 x10_2/uL
  KIDNEY_L: 1.1 g
  KIDNEY_R: 1.1 g
  KIDNEY_TOTAL: 2.2 g
  LIVER: 12.2 g
  A/G: 1.2
  ALP: 1819.6 IU/L
  ALT: 42.4 IU/L
  AST: 70.4 IU/L
  BUN: 19 mg/dL
  CRE: 0.2 mg/dL
  Ca: 10.6 mg/dL
  Cl: 107.6 meq/L
  DBIL: 0 mg/dL
  GLC: 194.6 mg/dL
  IP: 7.3 mg/dL
  K: 4.1 meq/L
  LDH: 185.6 IU/L
  Na: 142 meq/L
  PL: 148.2 mg/dL
  RALB: 3 g/dL
  TBIL: 0.002 mg/dL
  TC: 76 mg/dL
  TG: 123.6 mg/dL
  TP: 5.5 g/dL
  gamma-GTP: 1.6 IU/L
[…], time 14 day
  TERMINAL_BW: 321.9 g
  APTT: 22.1 s
  Bas: 0%
  Eos: 1%
  Fbg: 335.6 mg/dL
  Hb: 14.1 g/dL
  Ht: 40.7%
  Lym: 87.4%
  MCH: 20.5 pg
  MCHC: 34.7%
  MCV: 58.9 fL
  Mono: 2.2%
  Neu: 8.2%
  PT: 16.1 s
  Plat: 116 x10_4/uL
  RBC: 690 x10_4/ul
  Ret: 4.9%
  WBC: 110.3 x10_2/uL
  KIDNEY_L: 1.3 g
  KIDNEY_R: 1.3 g
  KIDNEY_TOTAL: 2.6 g
  LIVER: 13.9 g
  A/G: 1.1
  ALP: 1368.6 IU/L
  ALT: 35 IU/L
  AST: 70.2 IU/L
  BUN: 19.4 mg/dL
  CRE: 0.2 mg/dL
  Ca: 10.4 mg/dL
  Cl: 107.6 meq/L
  DBIL: 0 mg/dL
  GLC: 206.6 mg/dL
  IP: 7.2 mg/dL
  K: 4 meq/L
  LDH: 157.8 IU/L
  Na: 141.8 meq/L
  PL: 146.8 mg/dL
  RALB: 2.9 g/dL
  TBIL: 0.01 mg/dL
  TC: 79.8 mg/dL
  TG: 105.2 mg/dL
  TP: 5.5 g/dL
  gamma-GTP: 1.6 IU/L
[…], time 28 day
  TERMINAL_BW: 391.2 g
  APTT: 24.1 s
  Bas: 0%
  Eos: 1.2%
  Fbg: 339.2 mg/dL
  Hb: 15.6 g/dL
  Ht: 45.3%
  Lym: 85.4%
  MCH: 19 pg
  MCHC: 34.3%
  MCV: 55.3 fL
  Mono: 2.4%
  Neu: 9.2%
  PT: 16 s
  Plat: 99.2 x10_4/uL
  RBC: 819.8 x10_4/ul
  Ret: 2.5%
  WBC: 96.8 x10_2/uL
  KIDNEY_L: 1.4 g
  KIDNEY_R: 1.4 g
  KIDNEY_TOTAL: 2.9 g
  LIVER: 15.4 g
  A/G: 1.1
  ALP: 1061.2 IU/L
  ALT: 36.8 IU/L
  AST: 59.2 IU/L
  BUN: 19.6 mg/dL
  CRE: 0.2 mg/dL
  Ca: 10.5 mg/dL
  Cl: 106.4 meq/L
  DBIL: 0 mg/dL
  GLC: 203.4 mg/dL
  IP: 6.9 mg/dL
  K: 4 meq/L
  LDH: 130.6 IU/L
  Na: 141.4 meq/L
  PL: 151.8 mg/dL
  RALB: 3.1 g/dL
  TBIL: 0.014 mg/dL
  TC: 78.2 mg/dL
  TG: 140 mg/dL
  TP: 5.8 g/dL
  gamma-GTP: 2.2 IU/L

Source: ChEMBL document CHEMBL3885861, “Open TG-GATES”
